From PubChem BioAssay (NCI)
Values joined by “and” are separate entries in the source; they are usually repeats but may differ in a detail not shown here. Identical values can stand only once.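 1) Cells in 96-well plates. 2) Compound, 48 h, 5 concentrations. 3) Linear interpolation between surrounding doses. 4) Unreached endpoint = highest concentration. Here, GI50 denotes the concentration required for 50% inhibition of growth. TGI marks complete inhibition of growth.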

Key:
Experiment in all cases: NCI tumour cell line growth inhibition, 48 h
SK-MEL-28 melanoma = tested on: SK-MEL-28 melanoma
NCI-H23 lung = tested on: NCI-H23 lung
SF-539 CNS = tested on: SF-539 CNS
ACHN renal = tested on: ACHN renal
MALME-3M melanoma = tested on: MALME-3M melanoma
KM12 colon = tested on: KM12 colon
HL-60(TB) leukemia = tested on: HL-60(TB) leukemia
A498 renal = tested on: A498 renal
SK-OV-3 ovarian = tested on: SK-OV-3 ovarian
HCT-15 colon = tested on: HCT-15 colon

Row | SMILES | GI50 (SK-MEL-28 melanoma) [µM] | TGI (SK-MEL-28 melanoma) [µM] | GI50 (NCI-H23 lung) [µM] | TGI (NCI-H23 lung) | GI50 (SF-539 CNS) [µM] | GI50 (ACHN renal) [µM] | TGI (ACHN renal) [µM] | GI50 (MALME-3M melanoma) [µM] | GI50 (KM12 colon) [µM] | TGI (KM12 colon) | GI50 (HL-60(TB) leukemia) [µM] | TGI (HL-60(TB) leukemia) [µM] | GI50 (A498 renal) [µM] | TGI (A498 renal) [µM] | TGI (SF-539 CNS) [µM] | TGI (SK-OV-3 ovarian) [µM] | TGI (MALME-3M melanoma) [µM] | TGI (HCT-15 colon) | GI50 (SK-OV-3 ovarian) [µM] | GI50 (HCT-15 colon)
1 | COc1ccc(-c2nn(-c3ccc(NC(=O)c4ccc(Cl)c(C(F)(F)F)c4)cc3)cc2-c2ccncc2)cc1Cl | 2.85 | > 100 | 2.15 | > 100 µM | 0.5 | 1.58 | > 100 | 1.11 | 0.514 | > 100 µM | 0.794 | > 100 | 0.237 | 4.47 |  |  |  |  |  | 
2 | O=C(O)C1CCc2nnc(-c3ccccc3)n21 (centres undefined) |  | > 100 |  |  |  |  | > 100 |  |  | > 100 µM |  | > 100 |  | > 100 | > 100 | > 100 | > 100 | > 100 µM |  | 
3 | CCC1=C(C)/C(=C/c2[nH]c(C(Br)Br)c(CC)c2C)N=C1C(Br)Br |  | > 100 |  | > 100 µM |  |  | > 100 |  |  | 80.4 µM |  | 52.2 |  |  | > 100 | > 100 | 76.4 | > 100 µM |  | 
4 | CCOC(=O)C1=C(C)NC2SC(=O)/C(=C\c3ccccc3Cl)N2C1c1ccccc1 (centres undefined) | > 100 | > 100 | > 100 | > 100 µM | > 100 | > 100 | > 100 |  | > 100 | > 100 µM | 59.5 | > 100 | > 100 | > 100 | > 100 | > 100 |  | > 100 µM | > 100 | > 100 µM
5 | CC1(C)OC(=O)[C@@](C)([C@H](O)c2ccccc2)O1 |  |  |  | > 100 µM |  |  | > 100 |  |  | > 100 µM |  | > 100 |  | > 100 | > 100 | > 100 | > 100 |  |  | 
6 | CN1C(OCc2ccccc2)c2c(ccc3c2OCO3)C2C=Cc3cc4c(cc3C21)OCO4 (centres undefined) |  | 1.63 |  | 2.68 µM |  |  | 2.83 |  |  | 2.22 µM |  |  |  |  | 2.99 | 2.46 | 2.52 | 1.83 µM |  | 
7 | CC(N=C(N)N)C(=O)O (centres undefined) |  | > 100 |  | > 100 µM |  |  | > 100 |  |  | > 100 µM |  |  |  | > 100 |  | > 100 | > 100 | > 100 µM |  | 
8 | CC(=O)Nc1ccc(-c2c3nc(c(-c4cc5ccccc5[n+](C)c4)c4ccc([nH]4)c(-c4ccc(NC(C)=O)cc4)c4nc(c(-c5cc6ccccc6[n+](C)c5)c5ccc2[nH]5)C=C4)C=C3)cc1 | 10.5 | 29.2 | 17.3 | > 50 µM |  | 10.3 | 26.6 | 16.9 | 15.1 | > 50 µM | 10.1 | 29.2 | 5.16 | 36.2 |  | 35.6 | > 50 | > 50 µM | 11.1 | > 50 µM
9 | CCN(CC)C(=O)CC1=C(C)/C(=C/c2[nH]c(-c3ccc[nH]3)cc2OC)N=C1C |  |  | 0.794 | 71.9 µM | 0.498 | 0.374 | 1.97 | 0.982 | 0.374 | 59.2 µM | 1.82 | 61.9 | 0.98 | 7.12 | 12.2 | 8.3 | 9.05 | 0.891 µM | 0.658 | 0.278 µM
10 | CN1CCN(CCCOc2cccc3nc(Nc4ccc(Cl)c(F)c4)ccc23)CC1 | 1.72 | 3.21 | 1.75 | 3.43 µM | 1.53 | 1.66 | 3.07 | 1.92 | 1.77 | 3.43 µM |  |  | 2.39 | 8.28 | 3.04 | 3.44 | 4.05 | 2.79 µM | 1.79 | 1.4 µM
11 | C/C=C(\C)c1cc(=O)c2c(C)cc3c(c2o1)C(=O)c1c(O)c(C2CC(C)(N(C)C)C(O)C(C)O2)cc(C2CC(N(C)C)C(O)C(C)O2)c1C3=O (centres undefined) |  |  |  | 1.03 µM and 9.29 µM |  |  | 0.504 |  |  | 2.42 µM and > 23 µM |  | 6.82 |  | 0.453 |  |  |  | 5.15 µM and 24.4 µM |  | 0.42 µM and 3.22 µM
12 | N=Nc1c(OC(=O)Nc2ccccc2)[nH]c2ccccc12 |  | > 100 |  | 33.2 µM |  |  | 36.6 |  |  | 29.3 µM |  |  |  | 34.7 | 37.4 | 36.8 | 29.2 | > 100 µM |  | 
13 | CC(C)(C)[Si](C)(C)OCC1CCC(n2cnc3c(=O)[nH]cnc32)O1 (centres undefined) |  | > 100 |  | > 100 µM |  |  | > 100 |  |  | > 100 µM |  | > 100 |  |  | > 100 | > 100 | > 100 | > 100 µM |  | 
14 | O=C(Cn1c(=O)c(-c2ccccc2)nc2ccccc21)c1ccc(Cl)cc1 | 42.5 | > 100 | > 100 | > 100 µM |  | 38.6 | > 100 | > 100 | 98.1 | > 100 µM |  |  |  |  |  | > 100 | > 100 | > 100 µM | 46.4 | > 100 µM
15 | O=C(CC(=O)c1ccc([N+](=O)[O-])cc1)C(=O)Nc1nccs1 |  | > 100 |  | > 100 µM |  |  | > 100 |  |  | > 100 µM |  | > 100 |  |  | > 100 | > 100 | > 100 | > 100 µM |  | 
16 | COc1cc(=O)oc(/C=C/C=O)c1C |  | 26.6 |  | 46.7 µM |  |  | 39.6 |  |  | 38.2 µM |  | 83.9 |  | > 100 | 34.2 | 75.9 | 39.4 |  |  | 
17 | COc1cc([N+](=O)[O-])c(S(=O)(=O)O)cc1NS(=O)(=O)c1ccc(C)cc1 |  | > 100 |  | > 100 µM |  |  | > 100 |  |  | > 100 µM |  | > 100 |  | > 100 | > 100 | > 100 |  | > 100 µM |  | 
18 | O=[N+]([O-])c1cc([N+](=O)[O-])c(Cl)c(Cl)c1Cl | 1.67 | 3.06 | 2.69 | 8.04 µM |  | 1.04 | 2.3 | 1.7 | 1.85 | 3.76 µM | 2.07 | 4.69 | 5.2 | 17.9 |  | 18.4 | 3.77 |  | 5.84 | 
19 | C=C[C@@]1(C)CCC2(O)C(CCC3C2(C)CCC[C@@]3(C)COC(=O)CC(=O)OC)C1 (some centres undefined) |  | 30.9 |  | 37.4 µM |  |  | > 100 |  |  | 32.6 µM |  | 52.6 |  |  | 36.1 | > 100 | 32.3 | 34.9 µM |  | 
